In ChEMBL document CHEMBL5042502, “Discovery of Potent and Selective 2-(Benzylthio)pyrimidine-based DCN1-UBC12 Inhibitors for Anticardiac Fibrotic Effects” (J Med Chem, 2022):
The source made the active and inactive calls. No cut-off for these calls is given here.

Tests used:
[1] = Toxicity in 24 hr starved C57BL/6 mouse assessed as change in cardiac function at 2 g/Kg administered via gavage measured after 2 weeks by echocardiography; conditions: in vivo, po, 2000 mg/kg
[2] = tested on: Fibroblast of cardiac tissue; assay: Reversal of TGF-beta-induced increase in collagen I secretion in mouse cardiac fibroblast at 1 uM preincubated for 2 hrs followed by TGF-beta stimulation and further incubated for 24 hrs by Western blot analysis; format: functional, cell-based; conditions: time 26.0 hrs
DCN1-like protein 1 = DCN1-like protein 1 (Homo sapiens, UniProt Q96GG9)
Description: Binding affinity to DCN1 (unknown origin) assessed as change in entropy by MM-PBSA method

[3] = Toxicity in 24 hr starved C57BL/6 mouse assessed as pathological change in lungs at 2 g/Kg administered via gavage measured after 2 weeks by H and E staining based histopathological analysis; conditions: in vivo, po, 2000 mg/kg
Homo sapiens = organism: Homo sapiens; assay: Inhibition of NEDD8-UBC12 (unknown origin) interaction in presence of ATP at 100 uM by densitometry; conditions: time 10.0 min
DCN1-like protein 2 = DCN1-like protein 2 (Homo sapiens, UniProt Q6PH85); assay: Binding affinity to DCN2 (unknown origin) assessed as inhibitory constant
[4] = tested on: Fibroblast of cardiac tissue; assay: Effect on Cul1 neddylation in mouse cardiac fibroblast at 1 uM preincubated for 2 hrs by Western blot analysis; format: functional, cell-based
[5] = tested on: Fibroblast of cardiac tissue; assay: Reversal of Ang II-induced increase in collagen I secretion in mouse cardiac fibroblast at 1 uM preincubated for 2 hrs followed by Ang-II stimulation and further incubated for 24 hrs by western blot analysis; format: functional, cell-based; conditions: time 26.0 hrs
[6] = tested on: Fibroblast of cardiac tissue; assay: Effect on Cul2 neddylation in mouse cardiac fibroblast at 1 uM preincubated for 2 hrs by Western blot analysis; format: functional, cell-based
[7] = tested on: Fibroblast of cardiac tissue; assay: Effect on Cul4B neddylation in mouse cardiac fibroblast at 1 uM preincubated for 2 hrs by Western blot analysis; format: functional, cell-based
[8] = tested on: Fibroblast of cardiac tissue; assay: Antifibrotic effect in SD rat cardiac fibroblast assessed as reduction in Ang II-induced activation of Nrf2 signaling pathway preincubated for 2 hrs followed by Ang II-stimulation and further incubated for 24 hrs by western blot analysis (reference value: 43 %); format: functional; conditions: time 26 hrs
[9] = Toxicity in 24 hr starved C57BL/6 mouse assessed as animal survival at 2 g/Kg administered via gavage measured upto 2 weeks; conditions: in vivo, po, 2000 mg/kg
[10] = Toxicity in 24 hr starved C57BL/6 mouse assessed as pathological change in heart at 2 g/Kg administered via gavage measured after 2 weeks by H and E staining based histopathological analysis; format: tissue-based; conditions: in vivo, po, 2000 mg/kg
[11] = tested on: Fibroblast of cardiac tissue; assay: Effect on Ang II-induced in Cul4A neddylation in mouse cardiac fibroblast at 1 uM preincubated for 2 hrs followed by Ang-II stimulation and further incubated for 24 hrs by western blot analysis; format: functional, cell-based; conditions: time 26.0 hrs
Cardiac fibroblast = assay: Inhibition of DCN1 in Ang II-treated Sprague-Dawley rat cardiac fibroblast assessed as inhibition of cell proliferation preincubated for 2 hrs followed by Ang-II stimulation and further incubated for 24 hrs by MTT assay; format: cell-based; conditions: dose 0.1-3 µM, time 26.0 hrs
[12] = Cytotoxicity against Sprague-Dawley rat cardiac fibroblast incubated for 24 hrs by MTT assay; format: toxicity, cell-based, Fibroblast of cardiac tissue; conditions: cardiac fibroblasts
[13] = Toxicity in 24 hr starved C57BL/6 mouse assessed as pathological change in spleen at 2 g/Kg administered via gavage measured after 2 weeks by H and E staining based histopathological analysis; format: tissue-based; conditions: in vivo, po, 2000 mg/kg
DCN1-like protein 4 = target: T1, DCN1-like protein 4 (Homo sapiens, UniProt Q92564); assay: Binding affinity to DCN4 (unknown origin) assessed as inhibitory constant
T1 sequence (Q92564 whole entry): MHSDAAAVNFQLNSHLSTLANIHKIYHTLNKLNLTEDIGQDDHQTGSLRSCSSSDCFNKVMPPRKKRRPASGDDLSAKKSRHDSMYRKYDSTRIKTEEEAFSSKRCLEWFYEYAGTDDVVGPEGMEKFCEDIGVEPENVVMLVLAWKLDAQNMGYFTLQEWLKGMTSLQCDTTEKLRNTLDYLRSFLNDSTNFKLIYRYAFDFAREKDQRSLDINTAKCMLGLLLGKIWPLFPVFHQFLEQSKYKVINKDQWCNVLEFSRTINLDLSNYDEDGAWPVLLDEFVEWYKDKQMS

Sequence of DCN1-like protein 1 (Q96GG9 whole entry, looked up): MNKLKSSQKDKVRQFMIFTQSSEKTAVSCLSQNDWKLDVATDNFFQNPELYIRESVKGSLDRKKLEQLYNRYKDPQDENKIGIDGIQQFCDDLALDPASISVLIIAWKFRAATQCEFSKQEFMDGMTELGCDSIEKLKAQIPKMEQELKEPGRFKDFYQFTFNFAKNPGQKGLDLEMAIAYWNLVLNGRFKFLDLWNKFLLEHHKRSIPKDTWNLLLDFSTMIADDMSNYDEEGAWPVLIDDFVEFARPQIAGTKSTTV
Sequence of DCN1-like protein 2 (Q6PH85 whole entry): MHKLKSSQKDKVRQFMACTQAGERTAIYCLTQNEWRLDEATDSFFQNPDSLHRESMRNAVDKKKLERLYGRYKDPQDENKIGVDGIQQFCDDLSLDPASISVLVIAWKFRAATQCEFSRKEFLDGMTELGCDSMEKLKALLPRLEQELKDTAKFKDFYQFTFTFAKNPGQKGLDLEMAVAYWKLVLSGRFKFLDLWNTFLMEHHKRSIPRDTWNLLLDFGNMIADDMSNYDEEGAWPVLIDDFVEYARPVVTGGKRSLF

Compound: COc1cc(-c2nc(SCc3ccc(Cl)cc3)nc(Sc3nnnn3C)c2C#N)cc(OC)c1OC
- Activity [1]: Non-Toxic
- Activity [2]: Active
- -TdeltaS (DCN1-like protein 1): 11.2 kcal/mol
- Activity [3]: Non-Toxic
- inhibition (Homo sapiens): inactive
- Ki (DCN1-like protein 2): 18.8 µM
- Activity [4]: Active
- Activity [5]: Active
- Activity [6]: Active
- Activity [7]: Active
- inhibition (INH) [8]: 37%
- Activity [9]: Non-Toxic
- Activity [10]: Non-Toxic
- Activity [11]: Active
- inhibition (Cardiac fibroblast): Active
- IC50 at 24 h [12]: 27.3 µM
- Activity [13]: Non-Toxic
- Ki (DCN1-like protein 4): 22.4 µM
